Data on one compound can be found in patent US8163921B2, “Hepatitis C virus inhibitors” (Bristol-Myers Squibb Company, priority 2008, dated 2012).

The term IC50 denotes the concentration that gives 50% inhibition.

In the experiment the target is T1, HCV NS3/4A protease complex, J4L6S strain (Hepatitis C virus genotype 1b, UniProt O92972, C1454S/C1711G).
T1 construct: DNA encoding the recombinant HCV NS3/4A protease complex (amino acids 1027 to 1711) for these strains; inferred from Ni-NTA purification and the pET21b vector; made in house; host or cells: Escherichia coli BL21 (DE3)
T1 sequence (O92972 1027-1711 C1454S/C1711G, one chain of several): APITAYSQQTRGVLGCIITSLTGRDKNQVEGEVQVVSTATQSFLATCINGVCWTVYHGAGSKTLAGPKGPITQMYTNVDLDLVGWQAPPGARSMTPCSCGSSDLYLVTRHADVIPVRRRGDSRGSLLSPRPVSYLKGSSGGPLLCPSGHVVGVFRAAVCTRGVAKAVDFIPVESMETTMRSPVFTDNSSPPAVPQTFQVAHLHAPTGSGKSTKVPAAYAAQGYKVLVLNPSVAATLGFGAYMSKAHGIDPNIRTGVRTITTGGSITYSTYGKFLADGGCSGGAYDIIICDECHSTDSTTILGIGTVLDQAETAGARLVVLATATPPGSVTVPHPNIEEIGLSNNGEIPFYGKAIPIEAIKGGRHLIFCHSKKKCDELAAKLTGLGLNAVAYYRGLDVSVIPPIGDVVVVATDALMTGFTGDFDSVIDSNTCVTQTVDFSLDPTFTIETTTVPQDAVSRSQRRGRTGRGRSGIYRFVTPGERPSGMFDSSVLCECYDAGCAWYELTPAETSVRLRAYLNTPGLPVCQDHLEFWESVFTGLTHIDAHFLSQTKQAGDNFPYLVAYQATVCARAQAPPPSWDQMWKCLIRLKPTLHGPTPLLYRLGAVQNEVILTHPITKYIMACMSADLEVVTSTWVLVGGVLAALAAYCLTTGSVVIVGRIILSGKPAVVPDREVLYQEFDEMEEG
Kind of experiment: FRET peptide assay to monitor HCV NS3/4A proteolytic activity (J4L6S strain). The class given is biochemical, HCV genotype 1b. The conditions noted are these: published J4L6S strain. The source says: HCV NS3 protease complexes, derived from the BMS strain, H77 strain or J4L6S strain, were generated, as described below. These purified recombinant proteins were generated for use in a homogeneous assay (see below) to provide an indication of how effective compounds of the present disclosure would be in inhibiting HCV NS3 proteolytic activity.
Serum from an HCV-infected patient was obtained from Dr. T. Wright, San Francisco Hospital. An engineered full-length cDNA (compliment deoxyribonucleic acid) template of the HCV genome (BMS strain) was constructed from DNA fragments obtained by reverse transcription-PCR (RT-PCR) of serum RNA (ribonucleic acid) and using primers selected on the basis of homology between other genotype 1a strains. From the determination of the entire genome sequence, a genotype 1a was assigned to the HCV isolate according to the classification of Simmonds et al. (See P Simmonds, K A Rose, S Graham, S W Chan, F McOmish, B C Dow, E A Follett, P L Yap and H Marsden, J. Clin. Microbiol., 31(6), 1493-1503 (1993)). […]

SMILES strings stand for the structures.

In the case of `C=C[C@@H]1C[C@]1(NC(=O)[C@@H]1C[C@@H](Oc2ncc(OC)c3ccc(Cl)cc23)CN1C(=O)[C@@H](Nc1nc(-c2cccc(OC(F)(F)F)c2)cs1)C(C)(C)C)C(=O)NS(=O)(=O)C1CC1` [Example 68], the IC50 came to 0.9 nM.
